Laboratory results: patent publication US6784160B1, “Biologically active pregnene compounds” (Harbor Branch Oceanographic Institution, Inc., priority 2002, dated 2004)

What was measured:
Assay type in all cases: cell-based
[1] = tested on: P388 murine leukemia cell line; assay: In vitro proliferation of P388 cells (MTT); details: Mus musculus, 48-h exposure, read-out: P388 (IC50 μg/ml)
Method: (§1) Swiftiapregnene was analyzed as to its effect on the proliferation of PANC-1 human pancreatic and P388 murine leukemia cell lines. P388 cells were obtained from Dr. R. Camalier, National Cancer Institute, Bethesda, Md., and PANC-1 cells were obtained from American Type Culture Collection, Rockville, Md. All cell lines were maintained in tissue culture medium (TCM; Roswell Park Memorial Institute RPMI 1640 supplemented with 100 U/mL penicillin, […] streptomycin, […] 1-glutamine, 18 mM HEPES, 0.05 mg/mL gentamicin (Life Technologies, Gaithersburg, Md.) and 10% fetal bovine serum) and cultured in plastic tissue culture flasks at 37° C. in humidified air containing 5% CO2. Stock cultures of P388 cells were subcultured 1:20 in fresh TCM every 2 to 3 days. Stock cultures of A549 cells were subcultured 1:10 every 3 to 4 days. To assess the antiproliferative effects of agents against the cells, […] cultures (96-well tissue culture plates, Nunc, Denmark) were established at 1×10^5 cells/mL in TCM or TCM containing the test agent at 0.03-5.0 μg/mL. After 48-h exposures, P388 cells were enumerated using 3-[4,5-dimethylthiazol-2-yl]-2,5-diphenyltetrazolium bromide (MTT) as described in the literature (M. C. Alley, et al., Cancer Res. 48:589, 1988). […] The results were expressed as percent inhibition compared to the negative (no drug) control. […]

[2] = tested on: A549 human lung cells; assay: Cell cycle progression by flow cytometry (propidium iodide); details: 100 μg/ml, 24 hr
Method: Cell cycle studies were initiated in order to pinpoint a specific phase within the cell cycle in which discodermolide analogs were exerting their antiproliferative effect. A549 human lung cells were used as cell cycle targets to compare the effects of discodermolide and discodermolide analogs on perturbation of the cell cycle. Cell cycle analyses were performed as follows: A549 cells were incubated at 37° C. in 5% CO2 in air in the presence or absence of varying concentrations of discodermolide or discodermolide analogs for 24 hr. Cells were harvested, fixed in ethanol, washed, and stained with 0.2 mg/mL of propidium iodide (P.I.) together with 0.1 mg/mL of RNAse A. Stained preparations were analyzed on a Coulter EPICS ELITE flow cytometer with 488 nm excitation. Fluorescence measurements and resulting DNA histograms were collected from at least 10,000 P.I. stained cells at an emission wavelength of 690 nm. Raw histogram data was further analyzed using a cell cycle analysis program (Multicycle, Phoenix Flow Systems).

[3] = tested on: PANC-1 human pancreatic cell line; assay: In vitro proliferation of PANC-1 cells (MTT); details: 72 hours exposure, read-out: PANC-1 (IC50 μg/ml)
Method: as §1

C=CC1CCC2C3CC=C4CC(OC5OC(C)C(O)C(O)C5OC(C)=O)CCC4(C)C3CCC12C (stereo not drawn) [Swiftiapregnene (I), Swiftiapregnene]
IC50 [1]: 21 µg/mL | effect on cell cycle (sub-G1 population) [2]: increase in the sub-G1 population | IC50 [3]: 7.4 µg/mL
